# According to PubChem BioAssay (NCI):
#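 Where inhibition never reached the appropriate level, the endpoint shown equals the highest concentration tested. Otherwise, values were interpolated linearly from a five-concentration, 48-hour dose response in 96-well plates. GI50 is the concentration that inhibits growth by half. TGI: concentration producing complete growth inhibition.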
# Assays:
# Experiment in all cases: NCI tumour cell line growth inhibition, 48 h
# HT29 colon = test system: HT29 colon
# UO-31 renal = test system: UO-31 renal
# T-47D breast = test system: T-47D breast
# EKVX NSCLC = test system: EKVX NSCLC
# SK-OV-3 ovarian = test system: SK-OV-3 ovarian
# HCT-116 colon = test system: HCT-116 colon
# NCI/ADR-RES ovarian = test system: NCI/ADR-RES ovarian
# A498 renal = test system: A498 renal
# IGROV1 ovarian = test system: IGROV1 ovarian
# DU-145 prostate = test system: DU-145 prostate
# NCI-H460 lung = test system: NCI-H460 lung
# SF-539 CNS = test system: SF-539 CNS
# CAKI-1 renal = test system: CAKI-1 renal
# NCI-H226 lung = test system: NCI-H226 lung
# PC-3 prostate = test system: PC-3 prostate
# M14 melanoma = test system: M14 melanoma
# BT-549 breast = test system: BT-549 breast
# NCI-H522 lung = test system: NCI-H522 lung
# SF-268 CNS = test system: SF-268 CNS
# NCI-H23 lung = test system: NCI-H23 lung
# MALME-3M melanoma = test system: MALME-3M melanoma
# SN12C renal = test system: SN12C renal
# KM12 colon = test system: KM12 colon
# TK-10 renal = test system: TK-10 renal
# HCT-15 colon = test system: HCT-15 colon
# U251 CNS = test system: U251 CNS
# MDA-MB-231 breast = test system: MDA-MB-231 breast
# SK-MEL-2 melanoma = test system: SK-MEL-2 melanoma
# CCRF-CEM leukemia = test system: CCRF-CEM leukemia
# MDA-MB-468 breast = test system: MDA-MB-468 breast
# SK-MEL-28 melanoma = test system: SK-MEL-28 melanoma
# MCF7 breast = test system: MCF7 breast
# MDA-MB-435 = test system: MDA-MB-435
# K-562 leukemia = test system: K-562 leukemia
# HOP-62 NSCLC = test system: HOP-62 NSCLC
# HCC-2998 colon = test system: HCC-2998 colon
# OVCAR-8 ovarian = test system: OVCAR-8 ovarian
# SNB-19 CNS = test system: SNB-19 CNS
# COLO 205 colon = test system: COLO 205 colon
# ACHN renal = test system: ACHN renal
# MOLT-4 leukemia = test system: MOLT-4 leukemia
# OVCAR-4 ovarian = test system: OVCAR-4 ovarian
# SNB-75 CNS = test system: SNB-75 CNS
# SF-295 CNS = test system: SF-295 CNS
# HOP-92 NSCLC = test system: HOP-92 NSCLC
# LOX IMVI melanoma = test system: LOX IMVI melanoma
# HL-60(TB) leukemia = test system: HL-60(TB) leukemia
# UACC-257 melanoma = test system: UACC-257 melanoma
# UACC-62 melanoma = test system: UACC-62 melanoma
# HS 578T breast = test system: HS 578T breast
# OVCAR-5 ovarian = test system: OVCAR-5 ovarian
# OVCAR-3 ovarian = test system: OVCAR-3 ovarian
# 786-0 renal = test system: 786-0 renal
# SW-620 colon = test system: SW-620 colon
# RPMI-8226 leukemia = test system: RPMI-8226 leukemia
# RXF 393 renal = test system: RXF 393 renal
# SK-MEL-5 melanoma = test system: SK-MEL-5 melanoma
# A549 NSCLC = test system: A549 NSCLC
compound,measurement,setting,value
CC(C)c1sc(NC(=O)c2cc(NC(=O)c3cc(NC(=O)c4cscn4)cn3C)cn2C)nc1C(=O)NCCCN(C)C,GI50,HT29 colon,5.35 µM
same,TGI,HT29 colon,10.9 µM
same,GI50,UO-31 renal,> 28.3 µM
same,TGI,UO-31 renal,> 28.3 µM
same,GI50,T-47D breast,1.07 µM
same,TGI,T-47D breast,12.5 µM
same,GI50,EKVX NSCLC,5.84 µM
same,TGI,EKVX NSCLC,> 28.3 µM
same,GI50,SK-OV-3 ovarian,1.37 µM
same,TGI,SK-OV-3 ovarian,16.3 µM
same,GI50,HCT-116 colon,2.29 µM
same,TGI,HCT-116 colon,8.44 µM
same,GI50,NCI/ADR-RES ovarian,> 28.3 µM
same,TGI,NCI/ADR-RES ovarian,> 28.3 µM
same,GI50,A498 renal,> 28.3 µM
same,TGI,A498 renal,> 28.3 µM
same,GI50,IGROV1 ovarian,4.48 µM
same,TGI,IGROV1 ovarian,12.3 µM
same,GI50,DU-145 prostate,5.49 µM
same,TGI,DU-145 prostate,> 28.3 µM
same,GI50,NCI-H460 lung,7.6 µM
same,TGI,NCI-H460 lung,22 µM
same,GI50,SF-539 CNS,1.08 µM
same,TGI,SF-539 CNS,4.51 µM
same,GI50,CAKI-1 renal,17.5 µM
same,TGI,CAKI-1 renal,> 28.3 µM
same,GI50,NCI-H226 lung,3.22 µM
same,TGI,NCI-H226 lung,> 28.3 µM
same,GI50,PC-3 prostate,1.25 µM
same,TGI,PC-3 prostate,24.8 µM
same,GI50,M14 melanoma,5.25 µM
same,TGI,M14 melanoma,14.2 µM
same,GI50,BT-549 breast,0.994 µM
same,TGI,BT-549 breast,4.45 µM
same,GI50,NCI-H522 lung,1.08 µM
same,TGI,NCI-H522 lung,5.58 µM
same,GI50,SF-268 CNS,2.63 µM
same,TGI,SF-268 CNS,> 28.3 µM
same,GI50,NCI-H23 lung,4.51 µM
same,TGI,NCI-H23 lung,10.4 µM
same,GI50,MALME-3M melanoma,3.78 µM
same,TGI,MALME-3M melanoma,8.26 µM
same,GI50,SN12C renal,5.89 µM
same,TGI,SN12C renal,> 28.3 µM
same,GI50,KM12 colon,11.3 µM
same,TGI,KM12 colon,> 28.3 µM
same,GI50,TK-10 renal,> 28.3 µM
same,TGI,TK-10 renal,> 28.3 µM
same,GI50,HCT-15 colon,> 28.3 µM
same,TGI,HCT-15 colon,> 28.3 µM
same,GI50,U251 CNS,1.14 µM
same,TGI,U251 CNS,> 28.3 µM
same,GI50,MDA-MB-231 breast,5.63 µM
same,TGI,MDA-MB-231 breast,21.8 µM
same,GI50,SK-MEL-2 melanoma,3.75 µM
same,TGI,SK-MEL-2 melanoma,7.88 µM
same,GI50,CCRF-CEM leukemia,2.14 µM
same,TGI,CCRF-CEM leukemia,> 28.3 µM
same,GI50,MDA-MB-468 breast,1.03 µM
same,TGI,MDA-MB-468 breast,4.68 µM
same,GI50,SK-MEL-28 melanoma,3.17 µM
same,TGI,SK-MEL-28 melanoma,11.9 µM
same,GI50,MCF7 breast,3.58 µM
same,TGI,MCF7 breast,10.4 µM
same,GI50,MDA-MB-435,3.86 µM
same,TGI,MDA-MB-435,19.8 µM
same,GI50,K-562 leukemia,1.85 µM
same,TGI,K-562 leukemia,> 28.3 µM
same,GI50,HOP-62 NSCLC,6.43 µM
same,TGI,HOP-62 NSCLC,19.6 µM
same,GI50,HCC-2998 colon,3.86 µM
same,TGI,HCC-2998 colon,7.92 µM
same,GI50,OVCAR-8 ovarian,7.86 µM
same,TGI,OVCAR-8 ovarian,26 µM
same,GI50,SNB-19 CNS,0.838 µM
same,TGI,SNB-19 CNS,> 28.3 µM
same,GI50,COLO 205 colon,1.86 µM
same,TGI,COLO 205 colon,5.68 µM
same,GI50,ACHN renal,> 28.3 µM
same,TGI,ACHN renal,> 28.3 µM
same,GI50,MOLT-4 leukemia,9.35 µM
same,TGI,MOLT-4 leukemia,> 28.3 µM
same,GI50,OVCAR-4 ovarian,5.34 µM
same,TGI,OVCAR-4 ovarian,> 28.3 µM
same,GI50,SNB-75 CNS,0.829 µM
same,TGI,SNB-75 CNS,11.7 µM
same,GI50,SF-295 CNS,9.83 µM
same,TGI,SF-295 CNS,> 28.3 µM
same,GI50,HOP-92 NSCLC,0.846 µM
same,TGI,HOP-92 NSCLC,9.01 µM
same,GI50,LOX IMVI melanoma,0.739 µM
same,TGI,LOX IMVI melanoma,2.21 µM
same,GI50,HL-60(TB) leukemia,6.12 µM
same,TGI,HL-60(TB) leukemia,18.8 µM
same,GI50,UACC-257 melanoma,5.78 µM
same,TGI,UACC-257 melanoma,16.8 µM
same,GI50,UACC-62 melanoma,3.57 µM
same,TGI,UACC-62 melanoma,7.22 µM
same,GI50,HS 578T breast,4.55 µM
same,TGI,HS 578T breast,26.4 µM
same,GI50,OVCAR-5 ovarian,6.29 µM
same,TGI,OVCAR-5 ovarian,21 µM
same,GI50,OVCAR-3 ovarian,2.03 µM
same,TGI,OVCAR-3 ovarian,> 28.3 µM
same,GI50,786-0 renal,6.16 µM
same,TGI,786-0 renal,15.5 µM
same,GI50,SW-620 colon,4.21 µM
same,TGI,SW-620 colon,16.3 µM
same,GI50,RPMI-8226 leukemia,28.1 µM
same,TGI,RPMI-8226 leukemia,> 28.3 µM
same,GI50,RXF 393 renal,1.84 µM
same,TGI,RXF 393 renal,6.99 µM
same,GI50,SK-MEL-5 melanoma,5.35 µM
same,TGI,SK-MEL-5 melanoma,11.1 µM
same,GI50,A549 NSCLC,9.72 µM
same,TGI,A549 NSCLC,> 28.3 µM
